According to patent US20230390289A1, “COMBINED USE OF IN10018 AND PLD” (INXMED (NANJING) CO., LTD., priority 2021, published 2023):

Experiment: Study IN10018-006 safety: adverse events (CTCAE)
Settings: female, human, in vivo
Procedure: IN10018 in combination with pegylated liposomal doxorubicin (PLD) for the treatment of platinum-resistant ovarian cancer is currently being evaluated in a Phase Ib/II clinical study (IN10018-006) in China. The IN10018 was used as its tartrate, and the PLD was used as commercially available doxorubicin hydrochloride liposome injection (common name). Study subjects received IN10018 100 mg once daily (QD) orally combined with PLD 40 mg/m^2 by intravenous infusion once every 4 weeks (Q4W). A treatment cycle was 28 days.
By Jul. 30, 2021, a total of 26 patients with platinum-resistant ovarian cancer had been enrolled in the study. All subjects received at least one study drug treatment and were included in the safety analysis; 18 subjects had at least one post-baseline tumor imaging evaluation and were included in efficacy analysis.
By Jun. 22, 2021, 21 of the 22 subjects enrolled had adverse events (AEs), and according to the investigator's assessment, 20 of them had AEs related to IN10018. Regardless of the correlation, the system organ classes (SOC) of AE reported by at least 2 subjects were investigations (90.9%), gastrointestinal disorders (81.8%), renal and urinary disorders (72.7%), general disorders and administration site conditions (59.1%), metabolism and nutrition disorders (59.1%), infections and infestations (54.5%), blood and lymphatic system disorders (50.0%), respiratory, thoracic and mediastinal disorders (27.3%), musculoskeletal and connective tissue disorders (22.7%), skin and subcutaneous tissue disorders (18.2%), nervous system disorders (13.6%), cardiac disorders (18.2%) and psychiatric disorders (9.1%).
By Jun. 22, 2021, a total of 5 of the 22 subjects enrolled had serious adverse events (SAEs), of which 3 subjects reported SAEs related to IN10018: loss of appetite (grade 3, related to both IN10018 and PLD), constipation (grade 2, related to both IN10018 and PLD), abdominal distension (grade 3, related to both IN10018 and PLD), and elevated creatinine (grade 2, related to both IN10018 and PLD). No subject had adverse events leading to dose reduction of IN10018. Adverse events leading to discontinuation of study treatment were reported by 2 subjects, wherein loss of appetite (grade 3) leading to discontinuation in 1 subject was associated with both IN10018 and PLD. […] There were no adverse events leading to death in the study.

COc1cc(C(=O)NC2CCN(C)CC2)c(F)cc1Nc1ncc(C(F)(F)F)c(Oc2cccc3c2C(=O)N(C)C3)n1 [IN10018, 2-fluoro-5-methoxy-4-[(4-(2-methyl-3-oxo-2,3-dihydro-1H-isoindole-4-oxy)-5-trifluoromethyl-pyrimidin-2-yl)amino]-N-(1-methyl-piperidin-4-yl)benzamide]
SAE abdominal distension, grade: 3 grade
SAE constipation, grade: 2 grade
SAE elevated creatinine, grade: 2 grade
SAE loss of appetite, grade: 3 grade
